Data taken from patent US20240165135A1, “COMPOSITIONS AND METHODS FOR THE TREATMENT OF CANCER” (The State of Israel, Ministry of Agriculture & Rural …, priority 2021, published 2024).

Experiments:
[1] = test system: A172 GBM cells; experiment: XTT cell viability assay on A172; type: cell-based, Human; settings: for effect of IA, AN or B alone on A172 cell viability: 10 μM; for IC50: Homo sapiens, A 172, 48 h
Procedure: Cell cultures—Human glioblastoma A172 (ATCC®CRL-1620™) was cultured in DMEM (01-055-1A, Biological Industries, Israel) and U87MG (U87; ATCC®HTB-14™) in EMEM (01-058-1A; Biological Industries, Israel). Both media were supplemented with 10% fetal bovine serum (FBS, 04-127-1A, Biological Industries, Israel), 1% Pen-Strep, 1% L-Glutamine and 0.02% plasmocin (i.e., complete medium). Cells were incubated at 37° C. in a humidified atmosphere containing 5% CO2—95% air. Serum free media (SFM) was composed of DMEM/F12 (01-170-1A; Biological Industries, Israel), including all the supplements above except for FBS. Neurosphere media for A172 was composed of SFM with 2% B-27; Neurosphere media for U87 was serum-free EMEM without B27. For Glioblastoma stem cells (GSCs) cultures all human materials were used in accordance with the policies of the Henry Ford Hospital Institutional Review Board. Generation of GSCs from fresh GBM specimens and their characterization have been recently described. The GSCs were plated in neurosphere medium (DMEM-F12 1:1, glutamine 10 mM, HEPES buffer 10 mM and sodium bicarbonate 0.025%) supplemented with EGF and bFGF (20 ng/mL).
(§1) Cell viability assays—Cells were seeded in 96-well plates at density of 2×10^4 per well (100 μL/well) in SFM (for A172) or complete medium (for U87) and were incubated at 37° C. overnight to allow attachment. The following day, cells were treated with plant extracts (n=3), fractions, or cannabinoid standards in volume of 100 μL/well at different concentrations. Solvents used as a vehicle control and doxorubicin was used as a positive control in all the biological assays. Where indicated, CB1 or CB2 inverse agonists, TRPV1 or TRPV2 antagonists or TRPA1 blocker were added along with the indicated treatments at a concentration of 10 μM/mL in complete medium. Treated cells were incubated for 48 h at 37° C. Subsequently, XTT reagents (2,3-bis(2-methoxy-4-nitro-5-sulfophenyl)-5-[(phenylamine)-carbonyl]-2H-tetrazolium inner salt) (20-300-1000; Biological Industries, Israel) were added to the cells for 2 hours at 37° C. in a humidified 5% CO2—95% air atmosphere. Absorbance was recorded by a Synergy H1 hybrid reader photometer (BioTek) at 490 nm with 650 nm of reference wavelength. Cell viability was estimated from the equation: […]
(§2) For dose response assays, data points were connected by non-linear regression lines of the sigmoidal dose-response relation. GraphPad Prism version 6.1 (www(dot)graphpad(dot)com/scientific-software/prism/, GraphPad Software Inc., San Diego, USA) was employed to produce dose-response curves and determination of IC50 values.

[2] = test system: ovarian cancer cell line HTB75; experiment: XTT cell viability assay on HTB75; type: cell-based; settings: for effect of IA, AN or B alone on HTB75 cell viability: 10 μM, 48 h
Procedure: FIGS. 17A-B show cell viability of HTB75 cells (FIG. 17A) following treatment with crude extract of cannabis strains DQ, Paris, GB-11, GB-14 and GB-18. Cell viability was determined by XTT assay as a function of live cell number. NT is the vehicle treated control (1% v/v methanol). Error bars indicate ±SE (n=3). […] (FIG. 17B) following treatment with C. sativa DQ crude extract at different concentrations for IC50 value calculation from 5P logistic curve fit using GraphPad Prism version 6.1. Error bars indicate ±SE (n=3).
FIGS. 18A-C show cell viability of HTB75 cells following treatment with DQ extract fractions F1-F8, and crude extract. FIG. 18A—Cell viability was determined by XTT assay as a function of live cell number. NT is the vehicle treated control (1% v/v methanol). Error bars indicate ±SE (n=3). […] (FIGS. 18B-C) Cell viability of HTB75 cells following treatment with C. sativa DQ fractions F5 and F7 at different concentrations for IC50 values calculation from 5P logistic curve fit using GraphPad Prism version 6.1. Error bars indicate ±SE (n=3).
as §1, §2

[3] = given orally per mouse; reference [2]; cited from earlier work
[4] = test system: MAPK4 gene; experiment: Quantitative PCR of MAPK4 gene in HTB75 cell line; type: cell-based; settings: 2 h, relative to control
Procedure: FIG. 24 is a graph showing quantitative PCR-based determination of the RNA steady state level in HTB75 cell line of MAPK4 gene, after treatment with niraparib, F5, F7 or combination of niraparib+F5 or niraparib+F7, for 2 h relative to control. Gene transcript values were determined by quantitative PCR as a ratio between the target gene versus a reference gene (Hypoxanthine Phosphoribosyltransferasel; HPRT1; geneID 3251). Values were calculated relative to the average expression of target genes in treated versus control using the 2ΔΔCt method. Control (methanol) treatment served as solvent (vehicle) control; Error bars indicate ±s.e.m. (n=3).

[5] = test system: HTB75 cells; experiment: Apoptosis/necrosis, annexin V-FITC and PI FACS, HTB75; type: cell-based; settings: 48 h; niraparib 5.1, F5 19.1, F7 19.4, F5-SM 17.4, F7-SM 16.3 μg/mL; vehicle control 17.3%
Procedure: (§3) 10^4 cells were analyzed per treatment. Control is vehicle control (1.5% v/v methanol). The treated cells were harvested and analyzed in FACS following annexin V-FITC and PI staining. Error bars indicate ±SE (n=3).
Apoptosis assay—Apoptosis for the A172 cell line was assessed using MEBCYTO Apoptosis Kit with Annexin V-FITC and PI (MBL, Enco, 4700). Staining was carried out according to manufacturer's instructions. In brief, cells were seeded in a 6-well TC plate, at a density of 4×10^5 cells in 2 mL of SFM per well. 24 hours following seeding, cells were treated with the indicated treatments in complete medium for 48 hours. Following incubation, cells were harvested using trypsin and centrifuged for 5 minutes at 1600 rpm. Cell pellets were resuspended and washed twice with 1 mL of PBS. The cells in each sample were resuspended in 85 μL of Annexin binding buffer. Cells were stained using 10 μL of Annexin V-FITC solution and 5 μL of propidium iodide (PI) working solution followed by incubation in the dark at room temperature for 15 minutes. Then 400 μL of Annexin V binding buffer was added to each tube and flow cytometry was performed using a Gallios flow cytometer (FACS). Cells were considered apoptotic if they were Annexin V+/PI− (early apoptosis) or Annexin V+/PI+ (late apoptosis). Live cells were defined as Annexin V−/PI−, and Annexin V−/PI+ as necrosis.

[6] = test system: HTB75 cells; experiment: Cell cycle FACS, HTB75; type: cell-based; settings: 24 h; F5-SM 17.4 μg/mL, niraparib 4 μg/mL; control 21.4%
Procedure: as §3
Cell cycle analysis—A172 cells were seeded in 6-well TC plate at a concentration of 4×10^5 cells in 2 mL of SFM per well. Following 24 hours incubation, cells were treated with indicated treatments in complete medium for 24 hours. Methanol and doxorubicin were used as negative and positive controls, respectively. Cells were harvested and centrifuged for 5 minutes at 1600 rpm. Cell pellets were washed once with 1 mL of PBS and fixed with 70% cold ethanol overnight at −20° C. The fixed cells were washed twice with 1 mL of PBS and stained with 250 μL of PI solution (50 μg/mL) containing RNase A (100 μg/mL) for 30 minutes in dark conditions. 250 μL PBS was added to each tube and the cells were analyzed using FACS.

[7] = test system: A172 cells; experiment: Scratch-wound assay, A172 cell migration; type: cell-based, Human; settings: 36 hours; F4 20, F4-SM 11.5, F5 20, F5-SM 11.5, Doxo 0.5 μg/mL
Procedure: Scratch-wound assay—A172 cells were seeded in a 96-well plate at a density of 2×10^4 per well in 100 μL of complete medium. Following 24 hours, cells in each well were scratched perpendicularly across the center of the well with a 200 μL pipette tip to produce a cell-free area for investigating the ability of the cells to migrate and close the gap under different treatments. Immediately following scratching, 100 μL of treatment solution was added. Photos were taken by a CARL ZEISS inverted microscope coupled with a camera at 0, 14, 20, and 36 hours following scratching, and the gap area was measured using ImageJ (version 1.53a). The scratch area, indicated by cells migrated into the scratch was calculated as percent of scratch area at time x from time 0: […]

[8] = test system: HTB75 cells; experiment: Combined treatments with chemotherapy drugs on HTB75 viability, Bliss-independence model; type: cell-based; settings: combination treatments
Excerpt: FIGS. 23A-C are graphs showing synergistic interactions between fractions of some embodiments of the invention with (FIG. 23A) cisplatin, (FIG. 23B) gemcitabine and (FIG. 23C) niraparib on cell viability of HTB75 cells following combined treatments. Synergy of cytotoxic activity calculated based on Bliss-independence drug interaction model. Synergy is apparent when the experimental (observed) value of cell survival inhibition is higher than the calculated (expected) value. Values of delta of observed minus expected values, calculated based on Bliss model are shown in the Y axis.

CC(C)c1ccc(NC(=O)Cn2cnc3c2c(=O)n(C)c(=O)n3C)cc1 [TRPA1 B, HC-030031]
effect of IA, AN or B alone on A172 cell viability ([1]; 48 hours): reduced A172 cell viability to a minor, non-significant extent | effect of IA, AN or B alone on HTB75 cell viability [2]: did not affect HTB75 cell viability

CO [methanol]
LD50 [3]: ~7300 mg/kg

NC(=O)c1cccc2cn(-c3ccc([C@@H]4CCCNC4)cc3)nc12 [niraparib]
MAPK4 expression [4]: reduced | cell apoptosis [5]: 64.1% | percentage of cells in S phase [6]: 48.3%

Cn1nnc2c(C(N)=O)ncn2c1=O [TMZ, temozolomide]
effect on A172 viability / cell death ([1]; up to 50 μg/mL, 48 hours): no effect

COc1cccc(NC(=O)/C=C/c2ccc(Cl)cc2)c1 [TRPV1 AN, SB-366791]
effect of IA, AN or B alone on A172 cell viability ([1]; 48 hours): reduced A172 cell viability to a minor, non-significant extent | effect of IA, AN or B alone on HTB75 cell viability [2]: did not affect HTB75 cell viability

CCCCCc1cc(O)c2c(c1)OC(C)(C)[C@@H]1CCC(C)=C[C@@H]21 [THC, Tetrahydrocannabinol]
IC50 [1]: 4.83 µg/mL | inhibition of cell migration in comparison to the vehicle control [7]: 12.5% | effectiveness of phytocannabinoid combinations on HTB75 viability ([2]; fixed total concentration 13 and 15 μg/mL, ratios as in F5 or F7): less effective than various combinations of THC, CBC, CBG and CBN

CCCCCc1cc(O)c(C/C=C(\C)CCC=C(C)C)c(O)c1 [CBG, cannabigerol]
IC50 [1]: 5 µg/mL | inhibition of cell migration in comparison to the vehicle control [7]: 2.8%

Cc1c(C(=O)NN2CCCCC2)nn(-c2ccc(Cl)cc2Cl)c1-c1ccc(I)cc1 [AM251]
effect of IA, AN or B alone on A172 cell viability ([1]; 48 hours): reduced A172 cell viability to a minor, non-significant extent | effect of IA, AN or B alone on HTB75 cell viability [2]: did not affect HTB75 cell viability

SR144528 [CB2 IA]
effect of IA, AN or B alone on A172 cell viability ([1]; 48 hours): reduced A172 cell viability to a minor, non-significant extent | effect of IA, AN or B alone on HTB75 cell viability [2]: did not affect HTB75 cell viability

Nc1ccn([C@@H]2O[C@H](CO)[C@@H](O)C2(F)F)c(=O)n1 [Gemcitabine]
synergy of gemcitabine with F5, F7, F5-SM, F7-SM [8]: no considerable synergy
